# Laboratory results published in patent US11985974B2, “Antimicrobial ferulic acid derivatives and uses thereof” (WISCONSIN ALUMNI RESEARCH FOUNDATION, priority 2014, dated 2024).
# Test system: Alternaria solani (field isolate)
# Test: Colony growth of A. solani on plates
# Format: cell-based
# Conditions: 0, 500, 1,000, 1,500 μg/mL, dose-dependent
# Procedure: To test inhibition in liquid culture, a dose curve of 0, 125, 250, and 500 μg/mL poacic acid in 100 mL potato dextrose broth (n=3) was used. Cultures of S. sclerotiorum strain 1980 were inoculated with 100 μL homogenized mycelia and grown at 25° C. for 48 h. The mycelia in the liquid media were dried and weighed. The growth inhibition of poacic acid on solid agar cultures (potato dextrose agar) was assessed by generating replicate plates (n=3) containing 0, 125, 250, and 500 μg/mL poacic acid. Plates were inoculated with an actively growing plug of S. sclerotiorum and grown at 25° C. The mycelial radial growth after 48 h was measured Inhibition of S. sclerotiorum in planta was tested by inoculating detached soybean leaves of the commercial variety Williams 82 with an agar plug of actively growing S. sclerotiorum mycelia. Leaves were treated one time before inoculation with either an aerosol spray of water with DMSO (control) or a 500 μg/mL solution of poacic acid. Leaves were incubated in a moist environment, and lesion development was monitored up to 120 h postinoculation. […] The growth inhibition of poacic acid was assessed at 0, 500, 1,000, and 1,500 μg/mL in replicate plates (n=3). […] Colony diameter was monitored for each treatment in a time-course experiment. […]
structure (smiles),measurement,value
"COc1cc(/C=C/c2cc(/C=C/C(=O)O)cc(OC)c2O)ccc1O [poacic acid, (E)-4-Hydroxy-3-{2-[(E)-4-hydroxy-3-methoxystyryl]}-5-methoxycinnamic acid]",colony growth on plates,significantly (P<0.01) inhibited
